The source of these data is patent US20260139254A1, “INTERFERING RNA FOR INHIBITING TOP1 GENE EXPRESSION AND USE THEREOF” (JENKEM TECHNOLOGY CO., LTD. (BEIJING), priority 2022, published 2026).

Assay type in all cases: cell-based, human
In data set [1] the test system is TOP1 mRNA. Kind of data set: Inhibitory effects of modified sequences of siTOP1-1604 on TOP1 mRNA in PC-3 cells. The note with it: PC-3, siRNA 50 nM, 48 h after transfection, Blank = 100.00. The protocol: PC-3 human prostate cancer cells were transfected with the modified siTOP1 according to the method in Example 2 at a siRNA working concentration of 50 nM. TOP1 mRNA levels were detected 48 h after the transfection. The control groups were Blank (Opti-MEM at the equal volume), Lipofectamine™ RNAiMAX (Lipo) transfection reagent, and the positive control unmodified siTOP-1604.

Data set [2] concerns A375 melanoma cells. The experiment in a line: Inhibition of A375 cell proliferation by siTOP1 (CCK-8). The conditions noted are these: A375, siRNA 50 nM, 72 h. The protocol: • 1) On the day before transfection, A375 melanoma cells were seeded into a 96-well plate at 2500-3000 cells/well, the culture medium being a total volume of 200 μL of DMEM culture medium containing 7.5% FBS and 1% Penicillin-Streptomycin, and the plate was placed in an incubator with 5% CO2 at 37° C. for 24 h to allow the cells to adhere to the wall. 5 replicate wells were made for each group. • 2) On the day of transfection, the culture medium was changed to 90 μL of reduced serum culture medium without antibiotics and containing 7.5% FBS. • 3) The siRNAs were diluted with an appropriate amount of Opti-MEM culture medium; Lipofectamine™ RNAiMAX (Lipo) transfection reagent was diluted with another appropriate amount of Opti-MEM culture medium and left to stand at room temperature for 5 min; and the two dilutions were uniformly mixed and left to stand at room temperature for 5 min. • 4) 10 μL of the mixed solution described above was added to each well to obtain a final transfection volume of 100 μL, and the working concentration of the siRNA was 50 nM. • 5) The cells were cultured in the incubator with 5% CO2 at 37° C. for 72 h.
After 72 h of transfection, 10 μL of CCK-8 solution was added to each well, and the cells were cultured in the incubator with 5% CO2 at 37° C. for another 4 h. The absorbance value at 450 nm was measured using a microplate reader. Cell viability was calculated according to the following formula: […]

For data set [3], the system named is TOP1 mRNA. Kind of data set: Inhibitory effect of siTOP1 on TOP1 mRNA in A375 cells (Lipofectamine RNAiMAX transfection, Q-PCR). The note with it: A375, siRNA 50 nM, 48 h after transfection. On the procedure:
• 1) On the day before transfection, A375 melanoma cells were seeded into a 24-well plate at 6×10^4 to 8×10^4 cells/well, the culture medium being 500 μL of DMEM containing 10% FBS and 1% Penicillin-Streptomycin, and the plate was placed in an incubator with 5% CO2 at 37° C. for 24 h to allow the cells to adhere to the wall. Three replicate wells were made for each group. • 2) On the day of transfection, the culture medium was changed to 450 μL of DMEM culture medium without antibiotics (containing 10% FBS). • 3) The siRNAs were diluted with 25 μL of Opti-MEM culture medium; the siNC (the siNC (reference: O Sordet et al., 2008) having the target sequence of 5′-TTCTCCGAACGTGTCACGT-3′ (SEQ ID NO: 46)) at the same concentration was the negative control group; Lipofectamine™ RNAiMAX (Lipo) transfection reagent was diluted with another 25 μL of Opti-MEM culture medium and left to stand at room temperature for 5 min; and the two dilutions were uniformly mixed and left to stand at room temperature for 5 min. • 4) 50 μL of the mixed solution described above was added to each well to obtain a final transfection volume of 500 μL. and the working concentration of the siRNA was 50 nM. • 5) After the transfection, the cells were cultured for 48 h and then collected.
• 1) RNA was extracted using an Eastep™ Super total RNA extraction kit; 300 μL of RNA lysis solution and 300 μL of RNA diluent were added; and the mixture was uniformly mixed and then transferred to a 1.5 mL centrifuge tube. • 2) The mixture was centrifuged at 14000 g for 5 min, and the supernatant was carefully pipetted into a new 1.5 mL centrifuge tube. • 3) A 0.5-fold volume of absolute ethanol was added, and the mixture was uniformly mixed by allowing the tube to be repeatedly upside down 15-20 times. Subsequently, the mixture was transferred to a centrifuge column and centrifuged at 12000 g for 1 min. The filtrate was discarded. • 4) 600 μL of RNA wash buffer was added, and the mixture was centrifuged at 12000 g for 1 min. The filtrate was discarded. • 5) 50 μL of DNase I incubation buffer was added, followed by DNA digestion at room temperature for 15 min. • 6) 600 μL of RNA wash buffer was added, the mixture was centrifuged at 12000 g for 1 min, and the filtrate was discarded. This procedure was repeated once. • 7) The mixture was centrifuged at 14000 g for 2 min to remove the residual RNA wash buffer, and then the centrifuge column was placed in a collection tube. • 8) An appropriate amount of RNase-free H2O was added, and the mixture was left to stand at room temperature for 12 min and centrifuged at 14000 g for 1 min. The collected RNA was preserved at −70° C. for later use.
• 1) The mass and concentration of the RNA were detected using NanoDrop™, and an RNA template was prepared as follows: RNase-free H2O was added to 1 μg of RNA to a volume of 10 μL; the mixture was placed at 70° C. for 5 min and then placed in an ice bath for 5 min for later use. • 2) A reaction system was established according to Table 2:
• 3) The reaction system described above was uniformly mixed and centrifuged to collect the liquid at the bottom of a tube, and the mixture was subjected to the procedures of 25° C. for 5 min, 42° C. for 60 min, and 72° C. for 15 min, thereby giving the cDNA product. • 4) A Q-PCR system was prepared according to Table 3, and the level of TOP1 gene was detected:
GAPDH was used as an endogenous reference, and the sequences of the primers used for detection are as follows: […]

As for “siTOP1-1604: siRNA targeting TOP1; target SEQ ID NO: 9, sense strand SEQ ID NO: 24, antisense strand SEQ ID NO: 39 (sense GUGUGGACAAGAUCCGGAAUU; antisense UUCCGGAUCUUGUCCACACUU; described as unmodified parent siRNA, further chemistry not given here)”, the “Relative expression level, mean value” in data set [1] worked out at 4.03. For the same substance, in data set [2], the “Cell viability (%), mean value” stood at 41.65% and the “Inhibition of A375 cell proliferation compared to Blank” value is recorded as “about 58%”. In addition, the “Inhibition of TOP1 expression” value in data set [3] is given as 94.0%. The “Relative expression level of gene, mean value” in data set [3] (Blank = 100.00, GAPDH reference) is 5.97.
